Results: ChEMBL document CHEMBL5724806, “Unraveling interindividual differences and functional consequences of gut microbial metabolism of immunosuppressants” (2024)

Columns and labels:
Type in all cases: ADME
[1] = (§1) The drug is tested on Bacteroides fragilis strain: DSM2151 for biotransformation under anaerobic condition. The drug concentrations were measured over 6 timepoints collected between 0 and 12 hours of incubation by liquid-chromatography-coupled mass spectrometry (LC–MS); design: dose 5 uM, timepoint 0, 1.5, 3, 6, 9, 12 hours; conditions: 5 µM
[2] = as §1, with “the gut metagenome community of T-05 with ENA study accession number: PRJEB31790” for “Bacteroides fragilis strain: DSM2151”, “7” for “6”; design: dose 5 uM, timepoint 0, 0.75, 1.5, 3, 6, 9, 12 hours; conditions: 5 µM
[3] = The drug is tested on Prevotella copri strain: DSM18205 for biotransformation under anaerobic condition. The drug concentrations were measured over 6 timepoints collected between 0 and 12 hours of incubation by liquid-chromatography-coupled mass spectrometry (LC–MS); design: dose 5 uM, timepoint 0, 1.5, 3, 6, 9, 12 hours; conditions: segatella copri, 5 µM
[4] = The drug is tested on Bacteroides thetaiotaomicron strain: DSM2079 for biotransformation under anaerobic condition. The drug concentrations were measured over 6 timepoints collected between 0 and 12 hours of incubation by liquid-chromatography-coupled mass spectrometry (LC–MS); design: dose 5 uM, timepoint 0, 1.5, 3, 6, 9, 12 hours; conditions: 5 µM
[5] = (§2) The drug is tested on Alloscardovia omnicolens strain: DSM21503 for biotransformation under microaerobic condition. The drug concentrations were measured over 6 timepoints collected between 0 and 12 hours of incubation by liquid-chromatography-coupled mass spectrometry (LC–MS); design: dose 5 uM, timepoint 0, 1.5, 3, 6, 9, 12 hours; conditions: 5 µM
[6] = The drug is tested on Bacteroides uniformis strain: DSM6597 for biotransformation under anaerobic condition. The drug concentrations were measured over 6 timepoints collected between 0 and 12 hours of incubation by liquid-chromatography-coupled mass spectrometry (LC–MS); design: dose 5 uM, timepoint 0, 1.5, 3, 6, 9, 12 hours; conditions: 5 µM
[7] = The drug is tested on Roseburia intestinalis strain: DSM14610 for biotransformation under anaerobic condition. The drug concentrations were measured over 6 timepoints collected between 0 and 12 hours of incubation by liquid-chromatography-coupled mass spectrometry (LC–MS); design: dose 5 uM, timepoint 0, 1.5, 3, 6, 9, 12 hours; conditions: 5 µM
[8] = as §2, with “the gut metagenome community of A-07 with ENA study accession number: PRJEB31790” for “Alloscardovia omnicolens strain: DSM21503”, “7” for “6”; design: dose 5 uM, timepoint 0, 0.75, 1.5, 3, 6, 9, 12 hours; conditions: 5 µM
[9] = as §1, with “the gut metagenome community of P-02 with ENA study accession number: PRJEB31790” for “Bacteroides fragilis strain: DSM2151”, “7” for “6”; design: dose 5 uM, timepoint 0, 0.75, 1.5, 3, 6, 9, 12 hours; conditions: 5 µM
[10] = as §2, with “the gut metagenome community of A-04 with ENA study accession number: PRJEB31790” for “Alloscardovia omnicolens strain: DSM21503”, “7” for “6”; design: dose 5 uM, timepoint 0, 0.75, 1.5, 3, 6, 9, 12 hours; conditions: 5 µM
[11] = The drug is tested on Capnocytophaga ochracea strain: DSM7271 for biotransformation under microaerobic condition. The drug concentrations were measured over 6 timepoints collected between 0 and 12 hours of incubation by liquid-chromatography-coupled mass spectrometry (LC–MS); design: dose 5 uM, timepoint 0, 1.5, 3, 6, 9, 12 hours; conditions: 5 µM
[12] = The drug is tested on Clostridium scindens strain: DSM5676 for biotransformation under anaerobic condition. The drug concentrations were measured over 6 timepoints collected between 0 and 12 hours of incubation by liquid-chromatography-coupled mass spectrometry (LC–MS); design: dose 5 uM, timepoint 0, 1.5, 3, 6, 9, 12 hours; conditions: 5 µM
[13] = as §1, with “the gut metagenome community of A-05 with ENA study accession number: PRJEB31790” for “Bacteroides fragilis strain: DSM2151”, “7” for “6”; design: dose 5 uM, timepoint 0, 0.75, 1.5, 3, 6, 9, 12 hours; conditions: 5 µM
[14] = The drug is tested on Alloscardovia omnicolens strain: DSM21503 for biotransformation under anaerobic condition. The drug concentrations were measured over 6 timepoints collected between 0 and 12 hours of incubation by liquid-chromatography-coupled mass spectrometry (LC–MS); design: dose 5 uM, timepoint 0, 1.5, 3, 6, 9, 12 hours; conditions: 5 µM
[15] = The drug is tested on Lactobacillus ruminis strain: ATCC25644 for biotransformation under microaerobic condition. The drug concentrations were measured over 6 timepoints collected between 0 and 12 hours of incubation by liquid-chromatography-coupled mass spectrometry (LC–MS); design: dose 5 uM, timepoint 0, 1.5, 3, 6, 9, 12 hours; conditions: ligilactobacillus ruminis, 5 µM
[16] = as §1, with “the gut metagenome community of P-01 with ENA study accession number: PRJEB31790” for “Bacteroides fragilis strain: DSM2151”, “7” for “6”; design: dose 5 uM, timepoint 0, 0.75, 1.5, 3, 6, 9, 12 hours; conditions: 5 µM
[17] = as §1, with “the gut metagenome community of A-01 with ENA study accession number: PRJEB31790” for “Bacteroides fragilis strain: DSM2151”, “7” for “6”; design: dose 5 uM, timepoint 0, 0.75, 1.5, 3, 6, 9, 12 hours; conditions: 5 µM
[18] = The drug is tested on Enterococcus faecalis strain: ATCC29212 for biotransformation under anaerobic condition. The drug concentrations were measured over 6 timepoints collected between 0 and 12 hours of incubation by liquid-chromatography-coupled mass spectrometry (LC–MS); design: dose 5 uM, timepoint 0, 1.5, 3, 6, 9, 12 hours; conditions: 5 µM
[19] = The drug is tested on Faecalibacterium prausnitzii strain: DSM17677 for biotransformation under anaerobic condition. The drug concentrations were measured over 6 timepoints collected between 0 and 12 hours of incubation by liquid-chromatography-coupled mass spectrometry (LC–MS); design: dose 5 uM, timepoint 0, 1.5, 3, 6, 9, 12 hours; conditions: faecalibacterium duncaniae, 5 µM
[20] = The drug is tested on Lactobacillus ruminis strain: ATCC25644 for biotransformation under anaerobic condition. The drug concentrations were measured over 6 timepoints collected between 0 and 12 hours of incubation by liquid-chromatography-coupled mass spectrometry (LC–MS); design: dose 5 uM, timepoint 0, 1.5, 3, 6, 9, 12 hours; conditions: ligilactobacillus ruminis, 5 µM
[21] = The drug is tested on Streptococcus salivarius strain: DSM20560 for biotransformation under anaerobic condition. The drug concentrations were measured over 6 timepoints collected between 0 and 12 hours of incubation by liquid-chromatography-coupled mass spectrometry (LC–MS); design: dose 5 uM, timepoint 0, 1.5, 3, 6, 9, 12 hours; conditions: 5 µM
[22] = The drug is tested on Streptococcus mitis strain: DSM12643 for biotransformation under microaerobic condition. The drug concentrations were measured over 6 timepoints collected between 0 and 12 hours of incubation by liquid-chromatography-coupled mass spectrometry (LC–MS); design: dose 5 uM, timepoint 0, 1.5, 3, 6, 9, 12 hours; conditions: 5 µM
[23] = as §2, with “the gut metagenome community of T-05 with ENA study accession number: PRJEB31790” for “Alloscardovia omnicolens strain: DSM21503”, “7” for “6”; design: dose 5 uM, timepoint 0, 0.75, 1.5, 3, 6, 9, 12 hours; conditions: 5 µM
[24] = The drug is tested on Enterococcus faecalis strain: ATCC29212 for biotransformation under microaerobic condition. The drug concentrations were measured over 6 timepoints collected between 0 and 12 hours of incubation by liquid-chromatography-coupled mass spectrometry (LC–MS); design: dose 5 uM, timepoint 0, 1.5, 3, 6, 9, 12 hours; conditions: 5 µM
[25] = as §2, with “the gut metagenome community of A-10 with ENA study accession number: PRJEB31790” for “Alloscardovia omnicolens strain: DSM21503”, “7” for “6”; design: dose 5 uM, timepoint 0, 0.75, 1.5, 3, 6, 9, 12 hours; conditions: 5 µM
[26] = The drug is tested on Actinomyces graevenitzii strain: DSM15540 for biotransformation under microaerobic condition. The drug concentrations were measured over 6 timepoints collected between 0 and 12 hours of incubation by liquid-chromatography-coupled mass spectrometry (LC–MS); design: dose 5 uM, timepoint 0, 1.5, 3, 6, 9, 12 hours; conditions: 5 µM
[27] = The drug is tested on Dorea formicigenerans strain: DSM3992 for biotransformation under anaerobic condition. The drug concentrations were measured over 6 timepoints collected between 0 and 12 hours of incubation by liquid-chromatography-coupled mass spectrometry (LC–MS); design: dose 5 uM, timepoint 0, 1.5, 3, 6, 9, 12 hours; conditions: 5 µM
[28] = as §2, with “the gut metagenome community of A-09 with ENA study accession number: PRJEB31790” for “Alloscardovia omnicolens strain: DSM21503”, “7” for “6”; design: dose 5 uM, timepoint 0, 0.75, 1.5, 3, 6, 9, 12 hours; conditions: 5 µM
[29] = as §1, with “the gut metagenome community of A-04 with ENA study accession number: PRJEB31790” for “Bacteroides fragilis strain: DSM2151”, “7” for “6”; design: dose 5 uM, timepoint 0, 0.75, 1.5, 3, 6, 9, 12 hours; conditions: 5 µM
[30] = as §2, with “the gut metagenome community of P-02 with ENA study accession number: PRJEB31790” for “Alloscardovia omnicolens strain: DSM21503”, “7” for “6”; design: dose 5 uM, timepoint 0, 0.75, 1.5, 3, 6, 9, 12 hours; conditions: 5 µM

| Bacterial Biotransformation [1] | Bacterial Biotransformation [2] | Bacterial Biotransformation [3] | Bacterial Biotransformation [4] | Bacterial Biotransformation [5] | Bacterial Biotransformation [6] | Bacterial Biotransformation [7] | Bacterial Biotransformation [8] | Bacterial Biotransformation [9] | Bacterial Biotransformation [10] | Bacterial Biotransformation [11] | Bacterial Biotransformation [12] | Bacterial Biotransformation [13] | Bacterial Biotransformation [14] | Bacterial Biotransformation [15] | Bacterial Biotransformation [16] | Bacterial Biotransformation [17] | Bacterial Biotransformation [18] | Bacterial Biotransformation [19] | Bacterial Biotransformation [20] | Structure (SMILES) | other results |
| --- | --- | --- | --- | --- | --- | --- | --- | --- | --- | --- | --- | --- | --- | --- | --- | --- | --- | --- | --- | --- | --- |
| Compound NOT metabolized | Compound NOT metabolized | Compound NOT metabolized | Compound NOT metabolized | Compound NOT metabolized | Compound NOT metabolized | Compound NOT metabolized | Compound NOT metabolized | Compound NOT metabolized | Compound NOT metabolized | Compound NOT metabolized | Compound NOT metabolized | Compound NOT metabolized | Compound NOT metabolized | Compound NOT metabolized | Compound NOT metabolized | Compound NOT metabolized | Compound NOT metabolized | Compound NOT metabolized | Compound NOT metabolized | CCOc1nc2cccc(C(=O)O)c2n1Cc1ccc(-c2ccccc2-c2nnn[nH]2)cc1 | Bacterial Biotransformation [21]: Compound NOT metabolized; Bacterial Biotransformation [22]: Compound NOT metabolized; Bacterial Biotransformation [23]: Compound NOT metabolized; Bacterial Biotransformation [24]: Compound NOT metabolized; Bacterial Biotransformation [25]: Compound NOT metabolized; Bacterial Biotransformation [26]: Compound NOT metabolized; Bacterial Biotransformation [27]: Compound NOT metabolized; Bacterial Biotransformation [28]: Compound NOT metabolized; Bacterial Biotransformation [29]: Compound NOT metabolized; Bacterial Biotransformation [30]: Compound NOT metabolized |
| Compound NOT metabolized | Compound metabolized | Compound NOT metabolized | Compound NOT metabolized | Compound NOT metabolized | Compound NOT metabolized | Compound metabolized | Compound metabolized | Compound metabolized | Compound metabolized | Compound NOT metabolized | Compound NOT metabolized | Compound NOT metabolized | Compound NOT metabolized | Compound NOT metabolized | Compound NOT metabolized | Compound NOT metabolized | Compound NOT metabolized | Compound NOT metabolized | Compound NOT metabolized | CN(Cc1cnc2nc(N)nc(N)c2n1)c1ccc(C(=O)N[C@@H](CCC(=O)O)C(=O)O)cc1 [METHOTREXATE] | Bacterial Biotransformation [21]: Compound NOT metabolized; Bacterial Biotransformation [22]: Compound NOT metabolized; Bacterial Biotransformation [23]: Compound metabolized; Bacterial Biotransformation [24]: Compound NOT metabolized; Bacterial Biotransformation [25]: Compound metabolized; Bacterial Biotransformation [26]: Compound NOT metabolized; Bacterial Biotransformation [27]: Compound NOT metabolized; Bacterial Biotransformation [28]: Compound metabolized; Bacterial Biotransformation [29]: Compound metabolized; Bacterial Biotransformation [30]: Compound NOT metabolized |
| Compound NOT metabolized | Compound metabolized | Compound NOT metabolized | Compound NOT metabolized | Compound NOT metabolized | Compound NOT metabolized | Compound NOT metabolized | Compound NOT metabolized | Compound NOT metabolized | Compound NOT metabolized | Compound NOT metabolized | Compound NOT metabolized | Compound NOT metabolized | Compound NOT metabolized | Compound NOT metabolized | Compound NOT metabolized | Compound NOT metabolized | Compound NOT metabolized | Compound NOT metabolized | Compound NOT metabolized | COc1c(C)c2c(c(O)c1C/C=C(\C)CCC(=O)O)C(=O)OC2 [MYCOPHENOLIC ACID] | Bacterial Biotransformation [21]: Compound NOT metabolized; Bacterial Biotransformation [22]: Compound NOT metabolized; Bacterial Biotransformation [23]: Compound metabolized; Bacterial Biotransformation [24]: Compound NOT metabolized; Bacterial Biotransformation [25]: Compound NOT metabolized; Bacterial Biotransformation [26]: Compound NOT metabolized; Bacterial Biotransformation [27]: Compound NOT metabolized; Bacterial Biotransformation [28]: Compound NOT metabolized; Bacterial Biotransformation [29]: Compound NOT metabolized; Bacterial Biotransformation [30]: Compound NOT metabolized |
